# Source: ChEMBL document CHEMBL1127068, “Selective inhibition of mammalian lanosterol 14 alpha-demethylase: a possible strategy for cholesterol lowering” (J Med Chem, 1993)
# What was measured:
# [1] = molecular target: T1, Steroid 17-alpha-hydroxylase/17,20 lyase (Homo sapiens, UniProt P05093); assay: Binding affinity for […] 17-alpha-hydroxylase
# T1 sequence (P05093 whole entry): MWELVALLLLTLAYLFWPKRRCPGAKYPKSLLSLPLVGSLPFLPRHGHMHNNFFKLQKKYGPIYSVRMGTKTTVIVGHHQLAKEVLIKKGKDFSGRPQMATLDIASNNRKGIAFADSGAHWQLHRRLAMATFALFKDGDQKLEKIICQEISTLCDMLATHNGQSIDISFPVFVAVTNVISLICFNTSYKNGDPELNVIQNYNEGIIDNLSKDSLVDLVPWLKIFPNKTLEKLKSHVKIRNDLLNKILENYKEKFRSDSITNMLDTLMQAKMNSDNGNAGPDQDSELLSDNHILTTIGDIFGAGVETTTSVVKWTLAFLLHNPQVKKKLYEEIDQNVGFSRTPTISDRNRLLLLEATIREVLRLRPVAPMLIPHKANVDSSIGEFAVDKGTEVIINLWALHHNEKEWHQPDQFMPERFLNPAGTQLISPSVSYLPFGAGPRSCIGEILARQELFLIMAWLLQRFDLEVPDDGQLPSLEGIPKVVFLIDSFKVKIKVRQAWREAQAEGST
# Homo sapiens = species on record: Homo sapiens; assay: Inhibition of cellular cholesterol biosynthesis using human fibroblasts in tissue culture; format: functional, organism-based
# Cricetinae gen. sp. [2] = assay: Effect on total serum cholesterol in male hamsters at a dose of 30 mg/kg orally administered for 3 days; format: functional, Cricetulus griseus; conditions: route oral
# Cytochrome P450 3A4 = Cytochrome P450 3A4 (Homo sapiens, UniProt P08684); assay: Binding affinity for progesterone 6-beta-hydroxylase of hepatic microsomes; format: ADME
# [3] = molecular target: T1, Steroid 17-alpha-hydroxylase/17,20 lyase; assay: Binding affinity for progesterone 17-alpha,20-lyase
# [4] = molecular target: T2, Cytochrome P450 11B1, mitochondrial (Homo sapiens, UniProt P15538); assay: Binding affinity for corticoid 11-beta-hydroxylase
# T2 sequence (P15538 whole entry): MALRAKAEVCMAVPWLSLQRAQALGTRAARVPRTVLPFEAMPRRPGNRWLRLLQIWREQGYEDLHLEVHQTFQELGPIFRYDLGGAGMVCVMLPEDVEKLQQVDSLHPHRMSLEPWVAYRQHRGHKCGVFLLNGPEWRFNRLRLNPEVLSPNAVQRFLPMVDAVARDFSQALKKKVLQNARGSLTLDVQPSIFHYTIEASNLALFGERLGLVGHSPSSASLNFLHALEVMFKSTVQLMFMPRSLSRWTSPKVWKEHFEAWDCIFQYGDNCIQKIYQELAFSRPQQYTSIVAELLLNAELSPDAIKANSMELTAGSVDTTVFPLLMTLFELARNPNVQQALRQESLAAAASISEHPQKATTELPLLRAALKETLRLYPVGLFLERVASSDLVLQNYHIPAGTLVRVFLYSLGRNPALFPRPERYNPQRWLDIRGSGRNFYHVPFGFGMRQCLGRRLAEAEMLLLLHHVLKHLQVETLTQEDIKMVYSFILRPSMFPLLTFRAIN
# Cricetinae gen. sp. [5] = assay: Percentage lowering of the total serum cholesterol in male hamsters at a dose of 30 mg/dL orally administered for 3 days; format: functional, Cricetulus griseus
# Aromatase = molecular target: T3, Aromatase (Homo sapiens, UniProt P11511); assay: Binding affinity for Cytochrome P450 19A1
# T3 sequence (P11511 whole entry): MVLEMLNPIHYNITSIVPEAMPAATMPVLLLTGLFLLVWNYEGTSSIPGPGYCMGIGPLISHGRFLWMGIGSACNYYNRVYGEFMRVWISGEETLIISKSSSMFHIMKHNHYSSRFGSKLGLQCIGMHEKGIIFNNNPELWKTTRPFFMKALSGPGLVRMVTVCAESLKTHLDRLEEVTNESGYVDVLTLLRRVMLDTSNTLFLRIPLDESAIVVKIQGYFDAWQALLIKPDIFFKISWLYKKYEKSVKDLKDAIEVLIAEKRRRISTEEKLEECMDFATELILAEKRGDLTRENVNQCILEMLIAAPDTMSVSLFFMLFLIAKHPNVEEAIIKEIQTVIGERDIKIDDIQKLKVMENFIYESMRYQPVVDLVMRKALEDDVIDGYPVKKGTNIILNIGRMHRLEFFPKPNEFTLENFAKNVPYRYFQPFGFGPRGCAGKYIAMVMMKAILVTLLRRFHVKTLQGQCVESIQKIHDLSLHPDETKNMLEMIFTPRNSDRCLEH
# Cricetinae gen. sp. [6] = assay: Percentage lowering of the total serum cholesterol in male hamsters at a dose of 100 […] orally administered for 3 days; format: functional, Cricetulus griseus
# Cricetinae gen. sp. [7] = assay: Effect on total serum cholesterol in male hamsters at a dose of 100 mg/kg orally administered for 3 days; format: functional, Cricetulus griseus; conditions: route oral
# Cricetinae gen. sp. [8] = assay: Percentage lowering of the total serum cholesterol in male hamsters at a dose of 10 […] orally administered for 3 days; format: functional, Cricetulus griseus
# Cricetinae gen. sp. [9] = assay: Effect on total serum cholesterol in male hamsters at a dose of 10 mg/kg orally administered for 3 days; format: functional, Cricetulus griseus; conditions: route oral
# Cricetinae gen. sp. [10] = assay: Effect on total serum cholesterol in male hamsters at a dose of 25 mg/kg orally administered for 14 days; format: functional, Cricetulus griseus; conditions: route oral
# Cricetinae gen. sp. [11] = assay: Percentage lowering of the total serum cholesterol in male hamsters at a dose of 200 […] orally administered for 14 days; format: functional, Cricetulus griseus
# Cricetinae gen. sp. [12] = assay: Percentage lowering of the total serum cholesterol in male hamsters at a dose of 100 […] orally administered for 14 days; format: functional, Cricetulus griseus
# Cricetinae gen. sp. [13] = assay: Effect on total serum cholesterol in male hamsters at a dose of 50 mg/kg orally administered for 14 days; format: functional, Cricetulus griseus; conditions: route oral
# Cricetinae gen. sp. [14] = assay: Effect on total serum cholesterol in male hamsters at a dose of 100 mg/kg orally administered for 14 days; format: functional, Cricetulus griseus; conditions: route oral
# Cricetinae gen. sp. [15] = assay: Percentage increase of the total serum cholesterol in male hamsters at a dose of 25 […] orally administered for 14 days; format: functional, Cricetulus griseus
# [16] = molecular target: T4, Lanosterol 14-alpha demethylase (Rattus norvegicus, UniProt Q64654); assay: Inhibition of lanosterol 14-alpha-demethylase of rat hepatic microsomes
# T4 sequence (Q64654 whole entry): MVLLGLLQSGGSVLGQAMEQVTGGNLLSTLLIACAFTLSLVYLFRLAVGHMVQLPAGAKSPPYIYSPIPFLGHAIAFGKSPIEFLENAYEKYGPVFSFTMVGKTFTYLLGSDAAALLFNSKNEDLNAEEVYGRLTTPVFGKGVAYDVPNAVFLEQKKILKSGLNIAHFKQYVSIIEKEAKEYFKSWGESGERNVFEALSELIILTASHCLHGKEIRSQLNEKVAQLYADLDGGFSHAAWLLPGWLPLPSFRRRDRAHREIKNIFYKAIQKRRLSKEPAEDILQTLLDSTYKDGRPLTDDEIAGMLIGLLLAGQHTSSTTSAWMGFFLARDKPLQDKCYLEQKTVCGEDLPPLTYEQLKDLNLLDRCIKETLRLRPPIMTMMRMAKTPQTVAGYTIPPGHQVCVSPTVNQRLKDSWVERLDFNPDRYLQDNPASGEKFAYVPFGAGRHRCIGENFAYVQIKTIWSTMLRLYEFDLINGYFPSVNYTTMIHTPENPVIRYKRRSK
# Cricetinae gen. sp. [17] = assay: Effect on total serum cholesterol in male hamsters at a dose of 200 mg/kg orally administered for 14 days; format: functional, Cricetulus griseus; conditions: route oral
# Cricetinae gen. sp. [18] = assay: Percentage lowering of the total serum cholesterol in male hamsters at a dose of 50 mg/dL orally administered for 14 days; format: functional, Cricetulus griseus
# Cricetinae gen. sp. [19] = assay: Percentage lowering of the total serum cholesterol in male hamsters at a dose of 75 mg/dL orally administered for 14 days; format: functional, Cricetulus griseus
# Cricetinae gen. sp. [20] = assay: Effect on total serum cholesterol in male hamsters at a dose of 75 mg/kg orally administered for 14 days; format: functional, Cricetulus griseus; conditions: route oral
# Cricetinae gen. sp. [21] = assay: Percentage lowering of the total serum cholesterol in male hamsters at a dose of 25 mg/dL orally administered for 14 days; format: functional, Cricetulus griseus
# Cricetinae gen. sp. [22] = assay: Effect on total serum cholesterol in male hamsters at a dose of 60 mg/kg orally administered for 3 days; format: functional, Cricetulus griseus; conditions: route oral
# Cricetinae gen. sp. [23] = assay: Percentage lowering of the total serum cholesterol in male hamsters at a dose of 60 […] orally administered for 3 days; format: functional, Cricetulus griseus
# Sequence of Cytochrome P450 3A4 (P08684 whole entry): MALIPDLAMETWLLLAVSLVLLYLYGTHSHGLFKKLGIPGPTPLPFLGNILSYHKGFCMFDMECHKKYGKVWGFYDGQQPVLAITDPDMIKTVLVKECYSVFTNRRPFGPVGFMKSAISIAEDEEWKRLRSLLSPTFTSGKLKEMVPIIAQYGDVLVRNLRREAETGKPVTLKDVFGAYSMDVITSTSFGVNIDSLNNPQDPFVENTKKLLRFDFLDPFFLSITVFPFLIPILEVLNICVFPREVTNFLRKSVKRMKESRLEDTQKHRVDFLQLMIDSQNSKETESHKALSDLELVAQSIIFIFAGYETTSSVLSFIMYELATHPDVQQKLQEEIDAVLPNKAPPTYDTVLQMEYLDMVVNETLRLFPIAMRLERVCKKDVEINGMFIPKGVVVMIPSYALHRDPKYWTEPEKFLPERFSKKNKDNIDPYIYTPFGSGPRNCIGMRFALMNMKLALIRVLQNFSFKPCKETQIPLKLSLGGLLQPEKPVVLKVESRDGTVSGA
smiles,measurement,setting,value
Nc1ccc(SC[C@H]2CO[C@@](CCc3ccc(Cl)cc3)(Cn3ccnc3)O2)cc1,Ki,[1],0.109 µM
same,IC50,Homo sapiens,0.008 µM
same,TC,Cricetinae gen. sp. [2],96.4 mg/dL
same,Ki,Cytochrome P450 3A4,0.033 µM
same,Ki,[3],0.054 µM
same,Ki,[4],0.015 µM
same,Lowering,Cricetinae gen. sp. [5],13%
same,Ki,Aromatase,0.013 µM
same,Lowering,Cricetinae gen. sp. [6],22%
same,TC,Cricetinae gen. sp. [7],86 mg/dL
same,Lowering,Cricetinae gen. sp. [8],5%
same,TC,Cricetinae gen. sp. [9],105.7 mg/dL
CC(=O)N1CCN(c2ccc(OCC3COC(Cn4ccnc4)(c4ccc(Cl)cc4Cl)O3)cc2)CC1 (configuration not stated) [KETOCONAZOLE],TC,Cricetinae gen. sp. [10],125.2 mg/dL
same,Lowering,Cricetinae gen. sp. [11],30%
same,Lowering,Cricetinae gen. sp. [12],11%
same,TC,Cricetinae gen. sp. [13],111.4 mg/dL
same,TC,Cricetinae gen. sp. [14],105 mg/dL
same,IC50,Homo sapiens,0.037 µM
same,Increase,Cricetinae gen. sp. [15],6%
same,Ki,[16],0.065 µM
same,TC,Cricetinae gen. sp. [17],83.1 mg/dL
same,Lowering,Cricetinae gen. sp. [18],6%
Cl.Cl.Cl.Nc1ccc(SC[C@@H]2CO[C@](CCc3ccc(Cl)cc3)(Cn3ccnc3)O2)cc1,TC,Cricetinae gen. sp. [10],117.4 mg/dL
same,Lowering,Cricetinae gen. sp. [12],49%
same,TC,Cricetinae gen. sp. [13],88.9 mg/dL
same,TC,Cricetinae gen. sp. [14],65.6 mg/dL
same,Lowering,Cricetinae gen. sp. [19],40%
same,TC,Cricetinae gen. sp. [20],76 mg/dL
same,Lowering,Cricetinae gen. sp. [21],8%
same,Lowering,Cricetinae gen. sp. [18],30%
Nc1ccc(SC[C@H]2CO[C@](CCc3ccc(Cl)cc3)(Cn3ccnc3)O2)cc1,TC,Cricetinae gen. sp. [22],85.1 mg/dL
same,Lowering,Cricetinae gen. sp. [23],40%
